Measured values from patent publication US11427567B2, “Imidazolyl pyrimidinylamine compounds as CDK2 inhibitors” (Incyte Corporation, priority 2019, dated 2022).

What follows are compounds tested against CDK2/Cyclin E1 (Homo sapiens (Human), UniProt P24941) (assay: CDK2/Cyclin E1 HTRF enzyme activity assay (Example A)). Details: 1 mM ATP.
Format: biochemical
Experimental: Assays were conducted in white 384-well polystyrene plates in a final reaction volume of 8 μL. […] HTRF signals were read after 1 hour at room temperature on a PHERAstar FS plate reader (BMG Labtech). Data was analyzed with IDBS XLFit and GraphPad Prism 5.0 software using a three or four parameter dose response curve to determine IC50 for each compound.

IC50, ≤ 0.05 µM:
CS(=O)(=O)N1CCC(Nc2ncc(C(F)(F)F)c(-c3cn(-c4ccc(CCN5CCCC5)cc4C#N)cn3)n2)CC1 [Example 434, 2-(4-(2-((1-(Methylsulfonyl)piperidin-4-yl)amino)-5-(trifluoromethyl)pyrimidin-4-yl)-1H-imidazol-1-yl)-5-(2-(pyrrolidin-1-yl)ethyl)benzonitrile]
CS(=O)(=O)N1CCC(Nc2ncc(C(F)(F)F)c(-c3cn(-c4ccc(N5CCC(N6CCCC6)CC5)cc4Cl)cn3)n2)CC1 [Example 146, 4-(1-(2-Chloro-4-(4-(pyrrolidin-1-yl)piperidin-1-yl)-phenyl)-1H-imidazol-4-yl)-N-(1-(methylsulfonyl)-piperidin-4-yl)-5-(trifluoromethyl)-pyrimidin-2-amine]
CN(C)CCNc1ccc(-n2cnc(-c3nc(NC4CCN(S(C)(=O)=O)CC4)ncc3C(F)(F)F)c2)c(C#N)c1 [Example 432, 5-((2-(Dimethylamino)ethyl)amino)-2-(4-(2-((1-(methylsulfonyl)piperidin-4-yl)amino)-5-(trifluoromethyl)pyrimidin-4-yl)-1H-imidazol-1-yl)benzonitrile]
CC(c1cccc(-n2cnc(-c3nc(NC4CCN(S(C)(=O)=O)CC4)ncc3C(F)(F)F)c2)c1Cl)N(C)C (stereo not drawn) [Example 376, 4-(1-(2-Chloro-3-(1-(dimethylamino)ethyl)phe-nyl)-1H-imidazol-4-yl)-N-(1-(methylsulfonyl)piperidin-4-yl)-5-(trifluoromethyl)pyrimi-din-2-amine]
Cc1nc(-c2nc(NC3CCN(S(C)(=O)=O)CC3)ncc2C(F)(F)F)cn1-c1ccc(C2CN(CCO)C2)cc1F [Example 420, 2-(3-(3-Fluoro-4-(2-methyl-4-(2-((1-(methylsulfonyl)piperidin-4-yl)amino)-5-(trifluoromethyl)pyrimidin-4-yl)-1H-imidazol-1-yl)phenyl)azetidin-1-yl)ethan-1-ol]
C[C@@H]1CN(S(C)(=O)=O)CC[C@@H]1Nc1ncc(C(F)(F)F)c(-c2cn(-c3ccc(C4CCCCN4)cc3Cl)cn2)n1 (single isomer, unassigned) [Example 277]
Cc1c(C#N)cccc1-n1cnc(-c2nc(NC3CCN(S(C)(=O)=O)CC3)ncc2C(F)(F)F)c1 [Example 43, 2-Methyl-3-(4-(2-((1-(methylsulfonyl)piperidin-4-yl)amino)-5-(trifluoromethyl)pyrimidin-4-yl)-1H-imidazol-1-yl)benzonitrile]
CS(=O)(=O)N1CCC(Nc2ncc(C(F)(F)F)c(-c3cn(-c4ccc(Cn5ncnn5)cc4Cl)cn3)n2)CC1 [Example 243, 4-(1-(4-((2H-Tetrazol-2-yl)methyl)-2-chlorophenyl)-1H-imidazol-4-yl)-N-(1-(methylsulfonyl)piperidin-4-yl)-5-(trifluoromethyl)pyrimidin-2-amine]
C[C@@H]1CN(S(C)(=O)=O)CC[C@@H]1Nc1ncc(C(F)(F)F)c(-c2cn(-c3ccc(C#N)cc3Cl)cn2)n1 [Example 172, 3-Chloro-4-(4-(2-(((3R,4S)-3-methyl-1-(methylsulfonyl)-piperidin-4-yl)-amino)-5-(trifluoro-methyl)pyrimidin-4-yl)-1H-imidazol-1-yl)benzonitrile]
C[C@@H]1CN(S(C)(=O)=O)CC[C@@H]1Nc1ncc(C(F)(F)F)c(-c2cn(-c3ccc(CO)cc3Cl)cn2)n1 [Example 234, (3-Chloro-4-(4-(2-(((3R,4S)-3-methyl-1-(methylsulfonyl)piperidin-4-yl)amino)-5-(trifluoromethyl)pyrimidin-4-yl)-1H-imidazol-1-yl)phenyl)methanol]
CNCc1ccc(-n2cnc(-c3nc(N[C@@H]4CCN(S(C)(=O)=O)C[C@H]4F)ncc3C(F)(F)F)c2)c(Cl)c1 [Example 225, 4-(1-(2-Chloro-4-((methylamino)-methyl)phenyl)-1H-imidazol-4-yl)-N-((3R,4R)-3-fluoro-1-(methylsulfonyl)-piperidin-4-yl)-5-(trifluoromethyl)-pyrimidin-2-amine]
Cc1nc(-c2nc(N[C@H]3CCN(S(C)(=O)=O)C[C@H]3F)ncc2C(F)(F)F)cn1-c1cccc(C#N)c1Cl [Example 384, 2-Chloro-3-(4-(2-(((3R,4S)-3-fluoro-1-(methylsulfonyl)piperidin-4-yl)amino)-5-(trifluoromethyl)pyrimi-din-4-yl)-2-methyl-1H-imidazol-1-yl)benzonitrile]
CS(=O)(=O)N1CCC(Nc2ncc(C(F)(F)F)c(-c3cn(-c4ccc5ncccc5c4Br)cn3)n2)CC1 [Example 164, 4-(1-(5-Bromoquinolin-6-yl)-1H-imidazol-4-yl)-N-(1-(methyl-sulfonyl)piperidin-4-yl)-5-(trifluoromethyl)-pyrimidin-2-amine]
CS(=O)(=O)N1CCC(Nc2ncc(C(F)(F)F)c(-c3cn(-c4ccc(CN5CCCC5=O)cc4Cl)cn3)n2)CC1 [Example 454, 1-(3-Chloro-4-(4-(2-((1-(methylsulfonyl)piperidin-4-yl)amino)-5-(trifluoromethyl)pyrimidin-4-yl)-1H-imidazol-1-yl)benzyl)pyrrolidin-2-one]
Cn1cc(-c2ccc(-n3cnc(-c4nc(NC5CCN(S(C)(=O)=O)CC5)ncc4C(F)(F)F)c3)c(C(F)(F)F)n2)cn1 [Example 98, 4-(1-(6-(1-Methyl-1H-pyrazol-4-yl)-2-(trifluoromethyl)pyridin-3-yl)-1H-imidazol-4-yl)-N-(1-(methylsulfonyl)piperidin-4-yl)-5-(trifluoromethyl) pyrimidin-2-amine]
CS(=O)(=O)N1CCC(Nc2ncc(C(F)(F)F)c(-c3cn(-c4cccc(CCN5CCC5)c4Cl)cn3)n2)CC1 [Example 373, 4-(1-(3-(2-(Azetidin-1-yl)ethyl)-2-chlorophenyl)-1H-imidazol-4-yl)-N-(1-(methylsulfonyl)piperidin-4-yl)-5-(trifluoromethyl)pyrimi-din-2-amine]
CN1CCN(c2ccc(-n3cnc(-c4nc(NC5CCN(S(C)(=O)=O)CC5)ncc4C(F)(F)F)c3)c(C#N)c2)CC1 [Example 430, 5-(4-Methylpiperazin-1-yl)-2-(4-(2-((1-(methylsulfonyl)piperidin-4-yl)amino)-5-(trifluoromethyl)pyrimidin-4-yl)-1H-imidazol-1-yl)benzonitrile]
Cn1cnc(-c2nc(NC3CCN(S(=O)(=O)c4cn(C)cn4)CC3)ncc2C(F)(F)F)c1 [Example 10, 4-(1-Methyl-1H-imidazol-4-yl)-N-(1-((1-methyl-1H-imidazol-4-yl)sulfonyl)piperidin-4-yl)-5-(trifluoromethyl)pyrimidin-2-amine]
CN(C)Cc1ccc(-n2cnc(-c3nc(NC4CCN(S(C)(=O)=O)CC4)ncc3C(F)(F)F)c2)c(C(F)(F)F)n1 [Example 246, 4-(1-(6-((Dimethylamino)methyl)-2-(trifluoromethyl)pyridin-3-yl)-1H-imidazol-4-yl)-N-(1-(methylsulfonyl)piperidin-4-yl)-5-(trifluoromethyl)pyrimidin-2-amine]
Cc1nc(C#N)ccc1-n1cnc(-c2nc(NC3CCN(S(C)(=O)=O)CC3)ncc2C(F)(F)F)c1 [Example 33, 6-Methyl-5-(4-(2-((1-(methylsulfonyl)piperidin-4-yl)amino)-5-(trifluoromethyl)pyrimidin-4-yl)-1H-imidazol-1-yl)picolinonitrile]
CS(=O)(=O)N1CCC(Nc2ncc(C(F)(F)F)c(-c3cn(-c4ccc5cccnc5c4Cl)cn3)n2)CC1 [Example 165, 4-(1-(8-Chloroquinolin-7-yl)-1H-imidazol-4-yl)-N-(1-(methyl-sulfonyl)piperidin-4-yl)-5-(trifluoromethyl)-pyrimidin-2-amine]
C[C@@]1(O)CCN(Cc2cc(F)c(-n3cnc(-c4nc(N[C@@H]5CCN(S(C)(=O)=O)C[C@H]5F)ncc4C(F)(F)F)c3)c(Cl)c2)C1 [Example 402, (R)-1-(3-Chloro-5-fluoro-4-(4-(2-(((3R,4R)-3-fluoro-1-(methylsulfonyl)piperidin-4-yl)amino)-5-(trifluoromethyl)pyrimidin-4-yl)-1H-imidazol-1-yl)benzyl)-3-methylpyrrolidin-3-ol]
CC(C)NCc1cc(F)c(-n2cnc(-c3nc(NC4CCN(S(C)(=O)=O)CC4)ncc3C(F)(F)F)c2)c(Cl)c1 [Example 394, 4-(1-(2-Chloro-6-fluoro-4-((isopropylamino)methyl)phenyl)-1H-imidazol-4-yl)-N-(1-(methylsulfonyl)piperidin-4-yl)-5-(trifluoromethyl)pyrimidin-2-amine]
Cc1nc(-c2nc(NC3CCN(S(C)(=O)=O)CC3)ncc2C(F)(F)F)cn1-c1ccc(N(C)CCO)cc1F [Example 113, 2-((3-Fluoro-4-(2-methyl-4-(2-((1-(methyl-sulfonyl)piperidin-4-yl)amino)-5-(trifluoromethyl)-pyrimidin-4-yl)-1H-imidazol-1-yl)phenyl)(methyl)-amino)ethan-1-ol]
Cc1nc(CN2CC(C)C2)ccc1-n1cnc(-c2nc(NC3CCN(S(C)(=O)=O)CC3)ncc2C(F)(F)F)c1 [Example 264, 4-(1-(2-Methyl-6-((3-methylazetidin-1-yl)methyl)pyridin-3-yl)-1H-imidazol-4-yl)-N-(1-(methylsulfonyl)piperidin-4-yl)-5-(trifluoromethyl)pyrimidin-2-amine]
CCN(C)Cc1ccc(-n2cnc(-c3nc(NC4CCN(S(C)(=O)=O)CC4)ncc3C(F)(F)F)c2)c(C(F)(F)F)c1 [Example 257, 4-(1-(4-((Ethyl(methyl)amino)methyl)-2-(trifluoromethyl)phenyl)-1H-imidazol-4-yl)-N-(1-(methylsulfonyl)piperidin-4-yl)-5-(trifluoromethyl)pyrimidin-2-amine]
CS(=O)(=O)N1CCC(Nc2ncc(C(F)(F)F)c(-c3cn(-c4cccc(C#N)c4Br)cn3)n2)CC1 [Example 63, 2-Bromo-3-(4-(2-((1-(methylsulfonyl)piperidin-4-yl)amino)-5-(trifluoromethyl)pyrimidin-4-yl)-1H-imidazol-1-yl)benzonitrile]
